Experimental data published in patent US12065433B2, “Positive allosteric modulators of the muscarinic acetylcholine receptor M1” (Vanderbilt University, priority 2018, dated 2024).

Biological target: T1, human mAChR M1 (Homo sapiens, UniProt P11229)
T1 sequence (P11229 1-460): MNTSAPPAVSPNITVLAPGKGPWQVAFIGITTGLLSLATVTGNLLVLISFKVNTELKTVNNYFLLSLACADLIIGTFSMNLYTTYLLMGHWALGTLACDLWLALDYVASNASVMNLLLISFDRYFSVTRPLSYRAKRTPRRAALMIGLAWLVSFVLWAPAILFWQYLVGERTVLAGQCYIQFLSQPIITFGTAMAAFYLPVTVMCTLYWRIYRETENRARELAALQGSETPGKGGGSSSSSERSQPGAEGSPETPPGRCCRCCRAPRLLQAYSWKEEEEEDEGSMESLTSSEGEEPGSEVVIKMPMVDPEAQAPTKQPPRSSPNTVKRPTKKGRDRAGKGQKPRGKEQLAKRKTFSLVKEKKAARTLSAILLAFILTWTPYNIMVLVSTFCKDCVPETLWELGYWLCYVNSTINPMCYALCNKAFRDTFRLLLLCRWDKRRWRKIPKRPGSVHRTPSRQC
Experiment: mAChR M1 cell-based functional assay (calcium mobilization, PAM mode)
Conditions: CHO-K1 cells stably expressing hM1, calcium flux (Fluo-4); for EC50: concentration-dependent increase in the EC20 acetylcholine response; for Emax: potentiation of EC20 acetylcholine response
From the text: Chinese hamster ovary (CHO-K1) cells stably expressing rat (r)M1 were purchased from the American Type Culture Collection and cultured according to their indicated protocol. CHO cells stably expressing human (h)M2, hM3, and hM5 were described previously (Levey, et al., 1991); hM1 and hM4 cDNAs were purchased from Missouri S&T cDNA Resource; rM4 cDNA was provided by T. I. Bonner (National Institutes of Health, Bethesda, MD). rM2 and rM3 were cloned from a rat brain cDNA library and sequence verified. hM1, rM2, rM3, hM4, and rM4 cDNAs were used to stably transfect CHO-K1 cells purchased from the American Type Culture Collection using Lipofectamine2000. To make stable rM2, hM2, rM3, hM4, and rM4 cell lines for use in calcium mobilization assays, these cells also were stably transfected with a chimeric G-protein (Gqi5) (provided by B. R. Conklin, University of California, San Francisco) using Lipofectamine 2000. rM1, hM1, rM3, hM3, rM5, and hM5 cells were grown in Ham's F-12 medium containing 10% heat-inactivated fetal bovine serum (FBS), 20 mM HEPES, and 50 μg/mL G418 sulfate. rM2-Gqi5, hM2-Gqi5, and hM4-Gqi5 cells were grown in the same medium also containing 500 μg/mL Hygromycin B. Stable rM4-Gqi5 cells were grown in DMEM containing 10% heat-inactivated FBS, 20 mM HEPES, 400 μg/mL G418 sulfate, and 500 μg/mL Hygromycin B.
For high throughput measurement of agonist-evoked increases in intracellular calcium, CHO-K1 cells stably expressing muscarinic receptors were plated in growth medium lacking G418 and hygromycin at 15,000 cells/20 μL/well in Greiner 384-well black-walled, tissue culture (TC)-treated, clear-bottom plates (VWR). Cells were incubated overnight at 37° C. and 5% CO2. The next day, cells were washed using an ELX 405 (BioTek) with four washes (80 μL) of assay buffer then aspirated to 20 μL. Next, 20 μL of 16 μM Fluo-4/acetoxymethyl ester (Invitrogen, Carlsbad, CA) prepared as a 2.3 mM stock in DMSO and mixed in a 1:1 ratio with 10% (w/v) Pluronic F-127 and diluted in assay buffer was added to the wells and the cell plates were incubated for 50 min at 37° C. and 5% CO2. Dye was removed by washing with the ELX 405 (four […], washes of assay buffer) then aspirated to 20 μL. Compound master plates were formatted in an 11 point CRC format (1:3 dilutions) in 100% DMSO with a starting concentration of 10 mM using the BRAVO liquid handler (Agilent). Test compound CRCs were then transferred to daughter plates (240 nL) using the Echo acoustic plate reformatter (Labcyte, Sunnyvale, CA) and then diluted into assay buffer (40 μL) to a 2× stock using a Thermo Fisher Combi (Thermo Fisher Scientific, Waltham, MA).
Calcium flux was measured using the Functional Drug Screening System (FDSS) 6000 (Hamamatsu Corporation, Tokyo, Japan) as an increase in the fluorescent static ratio. Compounds were applied to cells (20 μL, 2×) using the automated system of the FDSS 6000 at 4 s into the 300 s protocol and the data were collected at 1 Hz. At 144 s into the 300 s protocol, 10 μL of an EC20 concentration of the muscarinic receptor agonist acetylcholine was added (5×), followed by the addition of 12 μL an EC80 concentration of acetylcholine at the 230 s time point (5×). Agonist activity was analyzed as a concentration-dependent increase in calcium mobilization upon compound addition. Emax values for agonist activity are expressed relative to the maximum for acetylcholine. Positive allosteric modulator activity was analyzed as a concentration-dependent increase in the EC20 acetylcholine response. Antagonist activity was analyzed as a concentration-dependent decrease in the EC80 acetylcholine response. Concentration-response curves were generated using a four-parameter logistical equation in XLfit curve fitting software (IDBS, Bridgewater, NJ) for Excel (Microsoft, Redmond, WA) or Prism (GraphPad Software, Inc., San Diego, CA). […]

| SMILES | EC50 [nM] | Emax [%] |
| --- | --- | --- |
| O=C(N[C@H]1CCOC[C@@H]1O)c1cc(Cc2ccc(-n3cccn3)cc2)cc2c1OCO2 [Compound 1, N-[(3R,4S)-3-hydroxytetrahydropyran-4-yl]-6-[(4-pyrazol-1-ylphenyl)methyl]-1,3-benzodioxole-4-carboxamide] | 920 | 81 |
| O=C(N[C@H]1CCCC[C@@H]1O)c1cc(Cc2ccc(-n3cccn3)cc2)cc2c1OCO2 [Compound 2, N-[(1S,2S)-2-hydroxycyclohexyl]-6-[(4-pyrazol-1-ylphenyl)methyl]-1,3-benzodioxole-4-carboxamide] | 790 | 82 |
| O=C(NC1CC2(COC2)C1)c1cc(Cc2ccc(-n3cccn3)cc2)cc2c1OCO2 [Compound 3, N-(2-oxaspiro[3.3]heptan-6-yl)-6-[(4-pyrazol-1-ylphenyl)methyl]-1,3-benzodioxole-4-carboxamide] | – | 59 |
| O=C(N[C@H]1CCC[C@@H]1O)c1cc(Cc2ccc(-n3cccn3)cc2)cc2c1OCO2 [Compound 4, N-[(1S,2S)-2-hydroxycyclopentyl]-6-[(4-pyrazol-1-ylphenyl)methyl]-1,3-benzodioxole-4-carboxamide] | 2480 | 69 |
| O=C(N[C@H]1CC[C@@H]1O)c1cc(Cc2ccc(-n3cccn3)cc2)cc2c1OCO2 [Compound 5, N-[(1S,2S)-2-hydroxycyclobutyl]-6-[(4-pyrazol-1-ylphenyl)methyl]-1,3-benzodioxole-4-carboxamide] | 3670 | 55 |
| O=C(N[C@H]1CCCCC[C@@H]1O)c1cc(Cc2ccc(-n3cccn3)cc2)cc2c1OCO2 [Compound 6, N-[(1S,2S)-2-hydroxycycloheptyl]-6-[(4-pyrazol-1-ylphenyl)methyl]-1,3-benzodioxole-4-carboxamide] | 1040 | 76 |
| CC(C)(O)CNC(=O)c1cc(Cc2ccc(-n3cccn3)cc2)cc2c1OCO2 [Compound 7, N-(2-hydroxy-2-methyl-propyl)-6-[(4-pyrazol-1-ylphenyl)methyl]-1,3-benzodioxole-4-carboxamide] | – | 61 |
| CC1(C)COCCC1NC(=O)c1cc(Cc2ccc(-n3cccn3)cc2)cc2c1OCO2 (stereo not shown) [Compound 8, N-(3,3-dimethyltetrahydropyran-4-yl)-6-[(4-pyrazol-1-ylphenyl)methyl]-1,3-benzodioxole-4-carboxamide] | 7330 | 67 |
| Cn1ccc(-c2ccc(Cc3cc4c(c(C(=O)N[C@H]5CCOC[C@@H]5O)c3)OCO4)cn2)n1 [Compound 9, N-[(3R,4S)-3-hydroxytetrahydropyran-4-yl]-6-[[6-(1-methylpyrazol-3-yl)-3-pyridyl]methyl]-1,3-benzodioxole-4-carboxamide] | 1420 | 75 |
| Cn1ccc(-c2ccc(Cc3cc4c(c(C(=O)N[C@H]5CCCCC[C@@H]5O)c3)OCO4)cn2)n1 [Compound 10, N-[(1S,2S)-2-hydroxycycloheptyl]-6-[[6-(1-methylpyrazol-3-yl)-3-pyridyl]methyl]-1,3-benzodioxole-4-carboxamide] | 1190 | 74 |
| Cn1ccc(-c2ccc(Cc3cc4c(c(C(=O)N[C@H]5CCCC[C@@H]5O)c3)OCO4)cn2)n1 [Compound 11, N-[(1S,2S)-2-hydroxycyclohexyl]-6-[[6-(1-methylpyrazol-3-yl)-3-pyridyl]methyl]-1,3-benzodioxole-4-carboxamide] | 810 | 76 |
| Cn1ccc(-c2ccc(Cc3cc4c(c(C(=O)N[C@H]5CCC[C@@H]5O)c3)OCO4)cn2)n1 [Compound 12, N-[(1S,2S)-2-hydroxycyclopentyl]-6-[[6-(1-methylpyrazol-3-yl)-3-pyridyl]methyl]-1,3-benzodioxole-4-carboxamide] | 6440 | 74 |
| Cn1ccc(-c2ccc(Cc3cc4c(c(C(=O)N[C@H]5CC[C@@H]5O)c3)OCO4)cn2)n1 [Compound 13, N-[(1S,2S)-2-hydroxycyclobutyl]-6-[[6-(1-methylpyrazol-3-yl)-3-pyridyl]methyl]-1,3-benzodioxole-4-carboxamide] | – | 65 |
| Cn1ccc(-c2ccc(Cc3cc4c(c(C(=O)NC5CC6(COC6)C5)c3)OCO4)cn2)n1 [Compound 14, 6-[[6-(1-methylpyrazol-3-yl)-3-pyridyl]methyl]-N-(2-oxaspiro[3.3]heptan-6-yl)-1,3-benzodioxole-4-carboxamide] | – | 57 |
| Cn1ccc(-c2ccc(Cc3cc4c(c(C(=O)NC5CCOCC5)c3)OCO4)cn2)n1 [Compound 15, 6-[[6-(1-methylpyrazol-3-yl)-3-pyridyl]methyl]-N-tetrahydropyran-4-yl-1,3-benzodioxole-4-carboxamide] | – | 49 |
| Cc1nc(-c2ccc(Cc3cc4c(c(C(=O)N[C@H]5CCOC[C@@H]5O)c3)OCO4)cc2)co1 [Compound 16, N-[(3R,4S)-3-hydroxytetrahydropyran-4-yl]-6-[[4-(2-methyloxazol-4-yl)phenyl]methyl]-1,3-benzodioxole-4-carboxamide] | 1810 | 78 |
| Cc1nc(-c2ccc(Cc3cc4c(c(C(=O)N[C@H]5CCCC[C@@H]5O)c3)OCO4)cc2)co1 [Compound 17, N-[(1S,2S)-2-hydroxycyclohexyl]-6-[[4-(2-methyloxazol-4-yl)phenyl]methyl]-1,3-benzodioxole-4-carboxamide] | 1150 | 66 |
| Cc1c(Cc2ccc(-n3cccn3)cc2)cc(C(=O)N[C@H]2CCOC[C@@H]2O)c2c1OCO2 [Compound 18, N-[(3R,4S)-3-hydroxytetrahydropyran-4-yl]-7-methyl-6-[(4-pyrazol-1-ylphenyl)methyl]-1,3-benzodioxole-4-carboxamide] | 260 | 75 |
| Cc1c(Cc2ccc(-n3cccn3)cc2)cc(C(=O)N[C@H]2CCCC[C@@H]2O)c2c1OCO2 [Compound 19, N-[(1S,2S)-2-hydroxycyclohexyl]-7-methyl-6-[(4-pyrazol-1-ylphenyl)methyl]-1,3-benzodioxole-4-carboxamide] | 420 | 78 |
| Cc1c(Cc2ccc(-c3ccn(C)n3)cc2)cc(C(=O)N[C@H]2CCOC[C@@H]2O)c2c1OCO2 [Compound 20, N-[(3R,4S)-3-hydroxytetrahydropyran-4-yl]-7-methyl-6-[[4-(1-methylpyrazol-3-yl)phenyl]methyl]-1,3-benzodioxole-4-carboxamide] | 330 | 88 |
| Cc1c(Cc2ccc(-c3ccn(C)n3)cc2)cc(C(=O)N[C@H]2CCCC[C@@H]2O)c2c1OCO2 [Compound 21, N-[(1S,2S)-2-hydroxycyclohexyl]-7-methyl-6-[[4-(1-methylpyrazol-3-yl)phenyl]methyl]-1,3-benzodioxole-4-carboxamide] | 410 | 80 |
